Data published in patent US20130225611A1, “Compositions and Methods for Reducing Cancer Cell Proliferation and Modulating Importin-Beta Function” (THE REGENTS OF THE UNIVERSITY OF CALIFORNIA, priority 2011, published 2013).

Legend:
[1] = system: CRM1-mediated export of NFAT-GFP; assay: NFAT-GFP nuclear export after ionomycin washout in HEK 293 cells; type: cell-based, human; settings: HEK 293, importazole 40 μM, leptomycin B 10 ng/ml, 1 hour after ionomycin washout
Protocol: For all import and export experiments, HEK 293 cells stably expressing NFAT-GFP were grown on glass coverslips to approximately 50% confluency prior to drug treatment. In all cases, importazole was used at 40 μM and leptomycin B was used at 10 ng/ml. For controls, DMSO was used at a concentration of 0.4%. Ionomycin was added at 1.25 μM. Importazole and leptomycin B treatments were all for 1 hour. In all experiments cells were fixed with 4% formaldehyde prior to fluorescence microscopy. DNA was visualized with 1 μg/ml Hoechst dye.

[2] = system: spindle assembly around sperm chromosomes; assay: spindle assembly in metaphase-arrested Xenopus egg extracts; design: species or system Xenopus laevis; settings: 100 μM importazole
From the text: In order to determine whether importazole also disrupts mitosis, importazole was first tested in metaphase-arrested Xenopus egg extracts, which rely heavily on a RanGTP gradient for spindle assembly around sperm chromosomes. […] The effect was similar to that of adding a truncated importin-β (amino acids 71-876), a version that no longer binds to RanGTP and therefore sequesters its cargoes. […] Thus, importazole caused dramatic effects on spindle assembly consistent with the known role of the importin-β/RanGTP pathway in the Xenopus egg extract system, and is not a general microtubule inhibitor.
Xenopus laevis egg extracts were prepared as described by Hannak et al. (2006) Nat. Protoc. 1:2305-2314. For in vitro spindle assembly, Xenopus laevis sperm DNA was added to egg extracts supplemented with rhodamine-labeled tubulin. Asters were formed by addition of 5% DMSO. DNA was stained with Hoechst dye. The formation of microtubule-based structures was assessed using epifluorescence microscopy after a 30-minute room temperature incubation. In vitro microtubule polymerization and pelleting assays were performed by incubating 25 μM bovine tubulin, 1 mM GTP, and 5% DMSO in BRB80 buffer (80 mM PIPES, 1 mM MgCl2, 1 mM EGTA, pH 6.8) at 37° C. for 30 minutes. Polymerized microtubules were pelleted through a sucrose cushion, resuspended, and analyzed by SDS PAGE.

| Compound | CRM1-mediated export of NFAT-GFP [1] | sperm nuclei at which normal bipolar microtubule structures were prevented from forming [2] |
| --- | --- | --- |
| CCC(=C/[C@H](C)C/C=C/C(C)=C/[C@@H](C)C(=O)[C@@H](C)[C@H](O)[C@@H](C)C/C(C)=C/C(=O)O)/C=C/[C@@H]1OC(=O)C=C[C@@H]1C [leptomycin B, reference compound] | blocked | – |
| truncated importin-β (amino acids 71-876): truncated importin-β that no longer binds to RanGTP and therefore sequesters its cargoes | – | similar |
